The values below come from US11731961B2, “Phenyl propionic acid derivatives and uses thereof” (ILDONG PHARMACEUTICAL CO., LTD., priority 2016, dated 2023).

T1 sequence (O14842 whole entry): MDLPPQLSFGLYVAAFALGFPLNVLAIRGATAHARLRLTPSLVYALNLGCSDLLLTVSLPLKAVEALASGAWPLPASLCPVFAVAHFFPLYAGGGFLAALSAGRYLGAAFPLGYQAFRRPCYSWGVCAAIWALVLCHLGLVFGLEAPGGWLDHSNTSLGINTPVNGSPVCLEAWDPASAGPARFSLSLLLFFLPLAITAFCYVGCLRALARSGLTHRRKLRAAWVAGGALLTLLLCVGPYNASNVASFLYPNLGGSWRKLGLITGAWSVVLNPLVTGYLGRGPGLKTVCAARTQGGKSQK

This assay concerns the target T1, GPR40 (Homo sapiens, UniProt O14842).
T1 construct: expressed in transfected cells
The assay is described as follows: Cell-Based Aequorin Assay (agonistic activity). To be noted: 1 μM test compound; percentage of the activity of the reference agonist at its EC100 concentration. The method, then:
<In Vitro Assay 1> Cell-Based Aequorin Assay
Recombinant cells grown 18 h prior to the test in media without antibiotics were detached by gentle flushing with PBS-EDTA (5 mM EDTA), recovered by centrifugation and resuspended in “assay buffer” (DMEM/HAM's F12 with HEPES+0.1% BSA fatty-acid free). Cells were incubated at room temperature for at least 4 h with Coelenterazine (Molecular Probes). Dose response curves with the reference compounds were performed before testing the compounds.
For agonistic activity testing, 50 μL of cell suspension was injected on 96-well plates with plated 50 μL of test compounds or reference agonist. The resulting emission of light was recorded using the Hamamatsu Functional Drug Screening System 6000 (FDSS 6000).
To standardize the emission of recorded light (determination of the “100% signal”) across plates and across different experiments, some of the wells contained the reference agonist at its EC100 obtained during the test validation. Agonistic activities of test compounds were expressed as a percentage of the activity of the reference agonist at its EC100 concentration.
For `Cc1cc(OCCCS(C)(=O)=O)cc(C)c1-c1cccc(COc2ccc3c(c2)OC[C@H]3CC(=O)O)c1` [Comparative Example 1, reference compound], the “Agonistic activity (%, 1 μM)” value is recorded as “+++ (+++: over 70)”.

As to `CC#C[C@@H](CC(=O)O)c1ccc(O[C@@H]2CCc3c(-c4ccc(OC5CCS(=O)(=O)CC5)nc4)ccc(F)c32)cc1` [Example 1, (S)-3-(4-(((R)-4-(6-((1,1-Dioxidotetrahydro-2H-thiopyran-4-yl)oxy)pyridin-3-VI)-7-fluoro-2,3-dihydro-1H-inden-1-yl)oxy)phenyl)hex-4-ynoic acid], the “Agonistic activity (%, 1 μM)” value was “+ (+: under 40)”.

Regarding `CC#C[C@@H](CC(=O)O)c1ccc(O[C@@H]2CCc3c(-c4ccc(OCCN5CCS(=O)(=O)CC5)nc4)ccc(F)c32)cc1` [Example 3, (S)-3-(4-(((R)-4-(6-(2-(1,1-Dioxidothiomorpholino)ethoxy)pyridin-3-yl)-7-fluoro-2,3-dihydro-1H-inden-1-yl)oxy)phenyl)hex-4-ynoic acid], the “Agonistic activity (%, 1 μM)” value is listed as “+ (+: under 40)”.

For the compound `CC#C[C@@H](CC(=O)O)c1ccc(O[C@@H]2CCc3c(-c4ccc(O[C@@H]5CCOC5)nc4)ccc(F)c32)cc1` [Example 5, (S)-3-(4-(((R)-7-Fluoro-4-(6-(((R)-tetrahydrofuran-3-yl)oxy)pyridin-3-yl)-2,3-dihydro-1H-inden-1-yl)oxy)phenyl)hex-4-ynoic acid], the “Agonistic activity (%, 1 μM)” value is “+++ (+++: over 70)”.

As to `CC#C[C@@H](CC(=O)O)c1ccc(O[C@@H]2CCc3c(-c4ccc(OC5CCOCC5)nc4)ccc(F)c32)cc1` [Example 6, (S)-3-(4-(((R)-7-Fluoro-4-(6-((tetrahydro-2H-pyran-4-yl)oxy)pyridin-3-yl)-2,3-dihydro-1H-inden-1-yl)oxy)phenyl)hex-4-ynoic acid], the “Agonistic activity (%, 1 μM)” value is recorded as “+++ (+++: over 70)”.

Regarding `CC#C[C@@H](CC(=O)O)c1ccc(O[C@@H]2CCc3c(-c4ccc(O[C@H]5CCOC5)nc4)ccc(F)c32)cc1` [Example 7, (S)-3-(4-(((R)-7-Fluoro-4-(6-(((S)-tetrahydrofuran-3-yl)oxy)pyridin-3-yl)-2,3-dihydro-1H-inden-1-yl)oxy)phenyl)hex-4-ynoic acid], the “Agonistic activity (%, 1 μM)” value is on record as “+++ (+++: over 70)”.

For `CC#C[C@@H](CC(=O)O)c1ccc(O[C@@H]2CCc3c(-c4cnc(O[C@@H]5CCOC5)cc4C)ccc(F)c32)cc1` [Example 8, (S)-3-(4-(((R)-7-Fluoro-4-(4-methyl-6-(((R)-tetrahydrofuran-3-yl)oxy)pyridin-3-yl)-2,3-dihydro-1H-inden-1-yl)oxy)phenyl)hex-4-ynoic acid], the “Agonistic activity (%, 1 μM)” value was “++ (++: 40-70)”.

`CC#C[C@@H](CC(=O)O)c1ccc(O[C@@H]2CCc3c(-c4cncc(O[C@@H]5CCOC5)c4)ccc(F)c32)cc1` [Example 15, (S)-3-(4-(((R)-7-Fluoro-4-(5-(((R)-tetrahydrofuran-3-yl)oxy)pyridin-3-yl)-2,3-dihydro-1H-inden-1-yl)oxy)phenyl)hex-4-ynoic acid]: the “Agonistic activity (%, 1 μM)” value was “++ (++: 40-70)”.

As to `CC#C[C@@H](CC(=O)O)c1ccc(O[C@@H]2CCc3c(-c4cncc(OC5CCOCC5)c4)ccc(F)c32)cc1` [Example 16, (S)-3-(4-(((R)-7-Fluoro-4-(5-((tetrahydro-2H-pyran-4-yl)oxy)pyridin-3-yl)-2,3-dihydro-1H-inden-1-yl)oxy)phenyl)hex-4-ynoic acid], the “Agonistic activity (%, 1 μM)” value is listed as “++ (++: 40-70)”.

In the case of `CC#C[C@@H](CC(=O)O)c1ccc(O[C@@H]2CCc3c(-c4cnc(OC5CCOCC5)c(Cl)c4)ccc(F)c32)cc1` [Example 17, (S)-3-(4-(((R)-4-(5-Chloro-6-((tetrahydro-2H-pyran-4-yl)oxy)pyridin-3-yl)-7-fluoro-2,3-dihydro-1H-inden-1-yl)oxy)phenyl)hex-4-ynoic acid], the “Agonistic activity (%, 1 μM)” value was “+++ (+++: over 70)”.

Turning to `CC#C[C@@H](CC(=O)O)c1ccc(O[C@@H]2CCc3c(-c4cnc(O[C@@H]5CCOC5)c(C#N)c4)ccc(F)c32)cc1` [Example 18, (S)-3-(4-(((R)-4-(5-Cyano-6-(((R)-tetrahydrofuran-3-yl)oxy)pyridin-3-yl)-7-fluoro-2,3-dihydro-1H-inden-1-yl)oxy)phenyl)hex-4-ynoic acid], the “Agonistic activity (%, 1 μM)” value is recorded as “+++ (+++: over 70)”.

On to `CC#C[C@@H](CC(=O)O)c1ccc(O[C@@H]2CCc3c(-c4cnc(OC5CCOCC5)c(C#N)c4)ccc(F)c32)cc1` [Example 19, (S)-3-(4-(((R)-4-(5-Cyano-6-((tetrahydro-2H-pyran-4-yl)oxy)pyridin-3-yl)-7-fluoro-2,3-dihydro-1H-inden-1-yl)oxy)phenyl)hex-4-ynoic acid], for which the “Agonistic activity (%, 1 μM)” value is recorded as “+++ (+++: over 70)”.

Turning to `CC#C[C@@H](CC(=O)O)c1ccc(O[C@@H]2CCc3c2ccc(C#N)c3-c2ccc(O[C@@H]3CCOC3)nc2)cc1` [Example 20, (S)-3-(4-(((R)-5-Cyano-4-(6-(((R)-tetrahydrofuran-3-yl)oxy)pyridin-3-yl)-2,3-dihydro-1H-inden-1-yl)oxy)phenyl)hex-4-ynoic acid], the “Agonistic activity (%, 1 μM)” value was “+++ (+++: over 70)”.

As for `CC#C[C@@H](CC(=O)O)c1ccc(O[C@@H]2CCc3c2ccc(F)c3-c2ccc(O[C@@H]3CCOC3)nc2)cc1` [Example 21, (S)-3-(4-(((R)-5-Fluoro-4-(6-(((R)-tetrahydrofuran-3-yl)oxy)pyridin-3-yl)-2,3-dihydro-1H-inden-1-yl)oxy)phenyl)hex-4-ynoic acid], the “Agonistic activity (%, 1 μM)” value was “+++ (+++: over 70)”.

Turning to `CC#C[C@@H](CC(=O)O)c1ccc(O[C@@H]2CCc3c2ccc(F)c3-c2ccc(OC3CCOCC3)nc2)cc1` [Example 24, (S)-3-(4-(((R)-5-Fluoro-4-(6-((tetrahydro-2H-pyran-4-yl)oxy)pyridin-3-yl)-2,3-dihydro-1H-inden-1-yl)oxy)phenyl)hex-4-ynoic acid], the “Agonistic activity (%, 1 μM)” value is listed as “+++ (+++: over 70)”.
